# Assay results reported in patent US5098933A, “Pharmaceutically useful Michael addition products of unsaturated aldehydes and ketones and ascorbic acid” (Theracel Corporation, priority 1990, dated 1992).
# Experiments:
# [1] = Tissue biodistribution of 3H-KCPBL in mice; type: in vivo; conditions: for Biodistribution, Bone / Biodistribution, Brain / Biodistribution, Heart / Biodistribution, Kidney / Biodistribution, Large Intestine / Biodistribution, Liver / Biodistribution, Lung / Biodistribution, Muscle / Biodistribution, Small Intestine / Biodistribution, Spleen / Biodistribution, Stomach: 100 mg/kg
# Procedure: (§1) The objectives of these tests were to evaluate the pharmacokinetics of radiolabeled KCPBL when administered either perorally or intravenously to mice.
# (§2) 3H-KCPBL was prepared from the pure drug substance KCPBL by an exchange procedure using high specific activity tritiated water. The product was purified by reverse phase high performance liquid chromatography and then freeze-dried. Analysis was carried out on ^3 H-KCPBL reconstituted in water. Specific activity was not less than 185 GBg/mmol or 5 Ci/mmol and the molecular weight of the product is 258. HPLC analysis for purity was performed using a Zorbax C8 column (25 cm×4.6) eluting with water: acetonitrile (930:70).
# (§3) In the mouse studies, 3H-KCPBL was dissolved in sterile pyrogen-free saline containing […] of non-radiolabeled KCPBL. The final concentration of the test article in an injection volume of 0.1 ml was 66.6 mcCi. One tenth ml was administered intravenously for plasma level and tissue biodistribution studies. Peroral dosages were prepared in a manner consistent with this approach.
# Tissue samples were collected and assayed as described above. The tissues evaluated for KCPBL content at four and at 24 hours after test article administration were: heart, lung, kidney, liver spleen, muscle, bond, stomach, small intestine, large intestine and brain.
# [2] = system: splenic lymphocytes; experiment: Immunomodulation panel: lymphocyte blastogenesis (Con-A, PHA, PWM); type: in vivo, C57BL/6J mice
# Procedure: Daily intraperitoneal injections of KCPBL were administered to normal animals and immunological responsiveness to mitogens and specific antigen evaluated.
# Doses and schedule--Doses were selected to bracket the range generally known to be immunostimulatory in past experiments, 1, 10, and […] daily for four days.
# As an assessment of immunopathology in the above screening test panel, the cellularity of the spleen was evaluated by determination of the total number of splenocytes harvested. Humoral-mediated immunity was measured by enumerating IgM plaque-forming cells to the T-dependent antigen sheep erythrocytes. Cell-mediated immunity was evaluated as described above by determination of the ability of the splenocytes to produce the lymphokine interleukin-2 in response to stimulation by the mitogen concanavalin-A. Another measurement of cell-mediated immunity was the responsiveness of the splenic lymphocytes to the mitogens concanavalin-A (Con-A); phytohemagglutinin (PHA) and pokeweed mitogen (PWM) in the lymphocyte blastogenesis assay. In the latter test, the activation and proliferation of the lymphocytes to the mitogens represents the capability of the cells to sequentially pass from G0 to G1 and the S phse of the cell cycle. The responsiveness of the cells was measured by the uptake of radiolabeled 14C-thymidine.
# [3] = Pharmacokinetics of 3H-KCPBL in mice, plasma levels; type: in vivo; conditions: intravenous, mouse, through 6 hours
# Procedure: as §1, §2, §3
# Mice were given intravenous doses of 3H-KCPBL to evaluate its biodistribution in this laboratory animal model.
smiles,measurement,setting,value
O=C1CCC(C2(O)C(=O)OC3C(O)COC32O)C1 (stereo not shown) [KCPBL],tissues with highest drug levels,"[1]; 4 h, intravenous","liver, gastrointestinal tract, and brain"
same,tissues with highest drug levels,"[1]; 4 h, peroral",principally found in the kidneys and the gastrointestinal tract
same,tissues with highest drug levels,"[1]; 24 h, intravenous",muscle and brain demonstrated the highest levels
same,tissues with highest drug levels,"[1]; 24 h, peroral",the highest drug levels were found in muscle and brain
same,"Biodistribution, Bone","[1]; intravenous, 4 hour",12.77 ± 3.96 mcg/gm
same,"Biodistribution, Brain","[1]; intravenous, 4 hour",38.60 ± 16.90 mcg/gm
same,"Biodistribution, Heart","[1]; intravenous, 4 hour",10.45 ± 3.50 mcg/gm
same,"Biodistribution, Kidney","[1]; intravenous, 4 hour",11.72 ± 1.34 mcg/gm
same,"Biodistribution, Large Intestine","[1]; intravenous, 4 hour",65.57 ± 14.86 mcg/gm
same,"Biodistribution, Liver","[1]; intravenous, 4 hour",21.20 ± 4.78 mcg/gm
same,"Biodistribution, Lung","[1]; intravenous, 4 hour",2.60 ± 2.20 mcg/gm
same,"Biodistribution, Muscle","[1]; intravenous, 4 hour",31.97 ± 6.09 mcg/gm
same,"Biodistribution, Small Intestine","[1]; intravenous, 4 hour",58.50 ± 18.68 mcg/gm
same,"Biodistribution, Spleen","[1]; intravenous, 4 hour",0.95 ± 0.36 mcg/gm
same,"Biodistribution, Stomach","[1]; intravenous, 4 hour",23.79 ± 5.96 mcg/gm
same,"Biodistribution, Bone","[1]; intravenous, 24 hour",4.53 ± 0.86 mcg/gm
same,"Biodistribution, Brain","[1]; intravenous, 24 hour",34.80 ± 20.5 mcg/gm
same,"Biodistribution, Heart","[1]; intravenous, 24 hour",2.85 ± 1.23 mcg/gm
same,"Biodistribution, Kidney","[1]; intravenous, 24 hour",5.35 ± 3.66 mcg/gm
same,"Biodistribution, Large Intestine","[1]; intravenous, 24 hour",13.67 ± 9.3 mcg/gm
same,"Biodistribution, Lung","[1]; intravenous, 24 hour",1.32 ± 0.46 mcg/gm
same,"Biodistribution, Muscle","[1]; intravenous, 24 hour",120.90 ± 154.0 mcg/gm
same,"Biodistribution, Small Intestine","[1]; intravenous, 24 hour",9.62 ± 6.4 mcg/gm
same,"Biodistribution, Spleen","[1]; intravenous, 24 hour",0.71 ± 0.23 mcg/gm
same,"Biodistribution, Stomach","[1]; intravenous, 24 hour",10.36 ± 5.8 mcg/gm
same,"Biodistribution, Liver","[1]; intravenous, 24 hour, SD: data not available",25.7 mcg/gm
same,"Biodistribution, Bone","[1]; peroral, 4 hour",15.02 ± 13.6 mcg/gm
same,"Biodistribution, Brain","[1]; peroral, 4 hour",35.22 ± 1.64 mcg/gm
same,"Biodistribution, Heart","[1]; peroral, 4 hour",13.64 ± 4.98 mcg/gm
same,"Biodistribution, Kidney","[1]; peroral, 4 hour",63.57 ± 74.0 mcg/gm
same,"Biodistribution, Large Intestine","[1]; peroral, 4 hour",135.9 ± 32.5 mcg/gm
same,"Biodistribution, Liver","[1]; peroral, 4 hour",38.03 ± 5.0 mcg/gm
same,"Biodistribution, Lung","[1]; peroral, 4 hour",2.72 ± 0.38 mcg/gm
same,"Biodistribution, Muscle","[1]; peroral, 4 hour",40.81 ± 3.37 mcg/gm
same,"Biodistribution, Small Intestine","[1]; peroral, 4 hour",217.50 ± 267.6 mcg/gm
same,"Biodistribution, Spleen","[1]; peroral, 4 hour",1.73 ± 0.29 mcg/gm
same,"Biodistribution, Stomach","[1]; peroral, 4 hour",110.00 ± 118.0 mcg/gm
same,"Biodistribution, Bone","[1]; peroral, 24 hour",10.30 ± 4.72 mcg/gm
same,"Biodistribution, Brain","[1]; peroral, 24 hour",47.30 ± 33.0 mcg/gm
same,"Biodistribution, Heart","[1]; peroral, 24 hour",5.13 ± 3.37 mcg/gm
same,"Biodistribution, Kidney","[1]; peroral, 24 hour",10.28 ± 5.58 mcg/gm
same,"Biodistribution, Large Intestine","[1]; peroral, 24 hour",21.42 ± 4.39 mcg/gm
same,"Biodistribution, Liver","[1]; peroral, 24 hour",11.84 ± 9.58 mcg/gm
same,"Biodistribution, Lung","[1]; peroral, 24 hour",3.73 ± 3.49 mcg/gm
same,"Biodistribution, Muscle","[1]; peroral, 24 hour",188.5 ± 124.0 mcg/gm
same,"Biodistribution, Small Intestine","[1]; peroral, 24 hour",24.45 ± 5.3 mcg/gm
same,"Biodistribution, Spleen","[1]; peroral, 24 hour",1.71 ± 0.16 mcg/gm
same,"Biodistribution, Stomach","[1]; peroral, 24 hour",25.72 ± 15.0 mcg/gm
same,"Lymphocyte Blastogenesis, PHA",[2]; 1.0 mg/kg i.p.,5176 ± 1185 Counts per minute
same,"Lymphocyte Blastogenesis, PWM",[2]; 1.0 mg/kg i.p.,1977 ± 540 Counts per minute
same,"Lymphocyte Blastogenesis, RPMI",[2]; 1.0 mg/kg i.p.,95 ± 66 Counts per minute
same,"Lymphocyte Blastogenesis, Con-A",[2]; 10 mg/kg i.p.,10074 ± 1881 Counts per minute
same,"Lymphocyte Blastogenesis, PHA",[2]; 10 mg/kg i.p.,5590 ± 864 Counts per minute
same,"Lymphocyte Blastogenesis, RPMI",[2]; 10 mg/kg i.p.,95 ± 54 Counts per minute
same,reactivity of splenocytes to PHA,[2]; drug-treated animals,reactivity to PHA was not affected
same,responsiveness of splenocytes to Con-A,[2]; drug-treated animals,slightly more responsive to Con-A
same,responsiveness of splenocytes to PWM,[2]; drug-treated animals,significant increases in the responsiveness
same,serum level profile,[3],immediate peak serum drug level followed by a steep decline
